Reference: patent US20160130592A1, “Soybean Transformation Using HPPD Inhibitors as Selection Agents” (Bayer CropScience AG, priority 2010, published 2016)

Assays:
untransformed cells = assay: Selection with DKN as selectable agent in Shoot Induction medium, cotyledonary node method; format: cell-based, soybean; settings: DKN 2 ppm in Shoot Induction medium
Protocol: The cotyledonary node method used for transforming soybean has been described by Zhang et al., 1999, Clemente et al. 2000, Xing et al. 2000.
After washing, the explants are placed (5 per plate) on the Shoot Initiation Medium, inclined at 45°, with the cotyledonary node area imbedded in the medium and upwards. The Shoot Initiation step lasts 1 month (24° C. 16/8 photoperiod) with a transfer after 15 days in which the hypocotyl is eliminated to keep only the differentiating area and the cotyledon.
1×B5 major salts, 1×B5 minor salts, 28 mg/L Ferrous, 38 mg/L NaEDTA, 30 g/L Sucrose, 0.59 g/L MES, and 7 g/L Noble agar (pH 5.7). Filter sterilized 1×B5 vitamins, BAP (1.11 mg/L), Timentin (50 mg/L), Cefotaxime (200 mg/L), Vancomycin (50 mg/L) and the selection agent are added to this medium after autoclaving.
Transgenic events (cv Thorne) were generated for construct carrying hppd gene alone (e.i. pFCO117) or in combination with pdh gene (e.i. pFCO48), using DKN as selection agent, as described in example 1. Selection agent DKN (diketonitrile) was added in SI (Shoot Induction medium) at a final concentration of 2 ppm and for about 4 week. When explants were transferred to SE (Shoot Elongation medium), selection was removed. […] Visual selectable marker dramatically decreases selection time, as untransformed material can be identified and eliminated in as little as 4 weeks after transformation.

untransformed tissue = assay: Visual selection with IFT as selectable agent; format: cell-based, soybean; settings: FIG. 1; transformed material becomes green
Source text: FIG. 1: Visual selection with IFT as selectable agent.

[1] = about 4 weeks, cv Thorne, in vitro

`CS(=O)(=O)c1cc(C(F)(F)F)ccc1C(=O)C(C#N)C(=O)C1CC1` (stereo not shown) [DKN, 2-cyano-3-cyclopropyl-1-(2-methylsulphonyl-4-trifluoromethylphenyl)-propane-1,3-dione] was tested, and the “effect on chlorophyll synthesis” value (untransformed cells; [1]) was “prevents chlorophyll synthesis”, the “lethality for untransformed cells” value (untransformed cells; [1]) was “does not kill untransformed cells” and the “phenotype of untransformed tissue” value (untransformed cells; transformed material becomes green) was “white, elongated shoots”.

`CS(=O)(=O)c1cc(C(F)(F)F)ccc1C(=O)c1cnoc1C1CC1` [IFT, (5-cyclopropyl-4-isoxazolyl)[2-(methylsulfonyl)-4-(trifluoromethyl)phenyl]methanone] was tested, and the “phenotype of untransformed tissue” value (untransformed tissue) was “white, elongated shoots”.
